Key:
Format in all cases: functional, Mus musculus
NIH3T3 [1] = assay: Transfection activity of the liposomes derived from compound determined by luciferase assay at 12.5 nmol
NIH3T3 [2] = assay: Cytotoxicity expressed as percent viability of liposome-plasmid DNA complex at 25 nmol
NIH3T3 [3] = assay: Transfection activity of the liposomes derived from compound determined by luciferase assay at 25 nmol
NIH3T3 [4] = assay: Cytotoxicity expressed as percent viability of liposome-plasmid DNA complex at 12.5 nmol
NIH3T3 [5] = assay: Cytotoxicity expressed as percent viability of liposome-plasmid DNA complex at 100 nmol
NIH3T3 [6] = assay: Cytotoxicity expressed as percent viability of liposome-plasmid DNA complex at 50 nmol
NIH3T3 [7] = assay: Cytotoxicity expressed as percent viability of liposome-plasmid DNA complex

Row | SMILES | Transfection activity (NIH3T3 [1]) | Viability (NIH3T3 [2]) [%] | Transfection activity (NIH3T3 [3]) | Viability (NIH3T3 [4]) [%] | Viability (NIH3T3 [5]) [%] | Viability (NIH3T3 [6]) [%] | Viability (NIH3T3 [7]) [%]
1 | C[C@H](CCC(=O)NCCCNCCCCN)C1CCC2C3CCC4CC(OC/C=C/CO[C@@H]5CC[C@]6(C)C(CCC7C6CC[C@]6(C)C7CCC6[C@H](C)CCC(=O)NCCCNCCCCN)C5)CC[C@]4(C)C3CC[C@@]21C (stereo partly drawn) | 1000000 RLU (mg of protein)-1 | – | – | – | – | – | –
2 | C[C@H](CCC(=O)NCCCNCCCCN)C1CCC2C3CCC4CC(OC/C=C/CO[C@H]5CC[C@]6(C)C(CCC7C6CC[C@]6(C)C7CCC6[C@H](C)CCC(=O)NCCCNCCCCN)C5)CC[C@]4(C)C3CC[C@@]21C (stereo partly drawn) | 1500000 RLU (mg of protein)-1 | 75 | 2000000 RLU (mg of protein)-1 | 95 | 5 | 40 | –
3 | CC(C)CCC[C@@H](C)C1CCC2C3CC=C4CC(OC(=O)NCCN(C)C)CCC4(C)C3CCC21C (stereo partly drawn) | – | – | – | – | – | – | 95

Source: ChEMBL document CHEMBL1133836, “Anchoring and bola cationic amphiphiles for nucleotide delivery. Effects of orientation and extension of hydrophobic regions” (2001)
